Source: patent US8420673B2, “Fungicidal amides” (E I du Pont de Nemours and Company, priority 2007, dated 2013)
Where two headings read alike, the source gives them in different places.

Assays:
Type in all cases: in vivo
[1] = tested on: Phytophthora infestans; details: tomato seedlings, sprayed to run-off the day before inoculation
[2] = tested on: Plasmopara viticola; experiment: Test A: grape downy mildew, test suspension sprayed after inoculation, visual disease rating; details: grape seedlings, sprayed to run-off 24 h after inoculation
[3] = tested on: Phytophthora infestans; details: tomato seedlings, sprayed to run-off 17 h after inoculation
[4] = no asterisk, test concentration not given

Row | SMILES | Test B rating (disease control) [1, 4] [%] | Test A rating (disease control) [2, 4] [%] | Test C rating (disease control) [3, 4] [%] | Test B rating (disease control) ([1]; compound tested at 40 ppm) [%] | Test A rating (disease control) ([2]; compound tested at 40 ppm) [%] | Test C rating (disease control) ([3]; compound tested at 40 ppm) [%]
1 | Cc1cc(C(F)(F)F)nn1CC(=O)N1CCC(c2nc(CN[C@@H]3CCCc4ccccc43)cs2)CC1 [Compound 2, 2-[5-methyl-3-(trifluoromethyl)-1H-pyrazol-1-yl]-1-[4-[4-[[[(1R)-1,2,3,4-tetrahydro-1-naphthalenyl]amino]methyl]-2-thiazolyl]-1-piperidinyl]ethanone] | 100 | 28 | 93 |  |  | 
2 | Cc1cc(C(F)(F)F)nn1CC(=O)N1CCC(c2nc(CN(C)[C@@H]3CCCc4ccccc43)cs2)CC1 [Compound 1, 1-[4-[4-[[methyl[(1R)-1,2,3,4-tetrahydro-1-naphthalenyl]amino]methyl]-2-thiazolyl]-1-piperidinyl]-2-[5-methyl-3-(trifluoromethyl)-1H-pyrazol-1-yl]ethanone] | 100 | 72 | 99 |  |  | 
3 | Cc1cc(C(F)(F)F)nn1CCC(=O)N1CCC(c2nc(C(=O)N(C)[C@@H]3CCCc4ccccc43)cs2)CC1 [Compound 5, N-methyl-2-[1-[3-[5-methyl-3-(trifluoromethyl)-1H-pyrazol-1-yl]-1-oxopropyl]-4-piperidinyl]-N-[(1R)-1,2,3,4-tetrahydro-1-naphthalenyl]-4-thiazolecarboxamide] |  |  |  | 57 | 17 | 0
4 | Cc1cc(C(F)(F)F)nn1CC(=O)N1CCC(c2nc(CN(C=O)[C@@H]3CCCc4ccccc43)cs2)CC1 [Compound 4, N-[[2-[1-[2-[5-methyl-3-(trifluoromethyl)-1H-pyrazol-1-yl]acetyl]-4-piperidinyl]-4-thiazolyl]methyl]-N-[(1R)-1,2,3,4-tatrahydro-1-naphthalenyl]formamide] | 87 | 0 | 26 |  |  | 
5 | CC(=O)N(Cc1csc(C2CCN(C(=O)Cn3nc(C(F)(F)F)cc3C)CC2)n1)[C@@H]1CCCc2ccccc21 [Compound 3, N-[[2-[1-[2-[5-methyl-3-(trifluoromethyl)-1H-pyrazol-1-yl]acetyl]-4-piperidinyl]-4-thiazolyl]methyl]-N-[(1R)-1,2,3,4-tetrahydro-1-naphthalenyl]acetamide] | 85 | 55 | 53 |  |  | 
6 | CCOC(=O)C(C(=O)N1CCC(c2nc(C(=O)N(C)C3CCCc4ccccc43)cs2)CC1)n1nc(C(F)(F)F)cc1C (stereo not drawn) [Compound 6, ethyl 4-[4-[[methyl(1,2,3,4-tetrahydro-1-naphthalenyl)amino]carbonyl]-2-thiazolyl]-α-[5-methyl-3-(trifluoromethyl)-1H-pyrazol-1-yl]-β-oxo-1-piperidinepropanoate] |  |  |  | 17 | 72 | 0
